Results reported in publication PMC5563514, “Viral polymerase inhibitors T-705 and T-1105 are potential inhibitors of Zika virus replication” (Archives of Virology, 2017).
Like-named read-outs stand apart in the source and are kept apart here.

Legend:
[1] = Cytotoxicity against Vero cells (CPE monitoring, neutral red uptake); format: cell-based; details: African green monkey; for CC50 at 72 h: Vero cells, neutral red uptake, three independent experiments
Protocol: The cytotoxicity of the compounds against Vero cells was determined by monitoring the CPE. Vero cells (2.5 × 10^4/well) were plated in the wells of a 96-well plate. After 24 h, the cell monolayer was incubated with different concentrations of the test compounds for 72 h at 37 °C under a 5% CO2 atmosphere in a CO2 incubator and then monitored for CPE. The appropriate negative and positive controls were used. A neutral red uptake assay was used to assess cell viability. The half-maximal (50%) cytotoxic concentration (CC50) of each compound was determined from the dose-response curve.

ZIKV strain SZ01 = assay: CPE inhibition assay, anti-ZIKV activity in Vero cells; format: cell-based, Zika virus; details: for cell death rate compared with mock-treated ZIKV-infected cells: P < 0.05, two-tailed Student's t-test; for EC50: Zika virus, ZIKV strain SZ01, 68.6 TCID50, Vero cells, neutral red uptake, three independent experiments
YFV [2] = details: at low concentrations; cited from earlier work
YFV [3] = details: cited from earlier work

| Structure (SMILES) | CC50 at 72 h [1] [µM] | also measured |
| --- | --- | --- |
| NC(=O)c1nc(F)cn(C2OC(CO)C(O)C2O)c1=O (stereo not shown) [Compound 9, 4-(3,4-dihydroxy-5-(hydroxymethyl)tetrahydrofuran-2-yl)-6-fluoro-3-oxo-3,4-dihydropyrazine-2-carboxamide] | > 1000 |  |
| CC(C)Oc1cnc(O)c(C(N)=O)n1 [Compound 15, 6-isopropoxypyrazine-3-hydroxy-2-carboxamide] | 345 ± 48.4 |  |
| CCCCCCCCOc1cnc(O)c(C(N)=O)n1 [Compound 18, 3-hydroxy-6-(octyloxy)pyrazine-2-carboxamide] | 245 ± 17.8 |  |
| NC(=O)c1nccn(COCCO)c1=O [Compound 3, 4-((2-hydroxyethoxy)methyl)-3-oxo-3,4-dihydropyrazine-2-carboxamide] | > 1000 |  |
| NC(=O)c1nccn(CC(O)CO)c1=O (stereo not shown) [Compound 5, 4-(2,3-dihydroxypropyl)-3-oxo-3,4-dihydropyrazine-2-carboxamide] | > 2000 |  |
| COCCOc1cnc(O)c(C(N)=O)n1 [Compound 20, 3-hydroxy-6-(2-methoxyethoxy) pyrazine-2-carboxamide] | > 1000 |  |
| CCn1ccnc(C(N)=O)c1=O [Compound 1, 4-ethyl-3-oxo-3,4-dihydropyrazine-2-carboxamide] | > 1000 |  |
| NC(=O)c1nccn(CC(O)COC(c2ccccc2)(c2ccccc2)c2ccccc2)c1=O (stereo not shown) [Compound 4, 4-(2-hydroxy-3-(trityloxy)propyl)-3-oxo-3,4-dihydropyrazine-2-carboxamide] | > 500 |  |
| NC(=O)c1nc(F)c[nH]c1=O [Compound T-705, favipiravir] | > 3000 | cell death rate compared with mock-treated ZIKV-infected cells (ZIKV strain SZ01): significantly reduced; EC50 (ZIKV strain SZ01): 111 ± 13.1 µM |
| CCCOc1cnc(O)c(C(N)=O)n1 [Compound 14, 3-hydroxy-6-propoxypyrazine-2-carboxamide] | > 500 |  |
| CC(=O)OCCOCn1ccnc(C(N)=O)c1=O [Compound 2, 2-((3-carbamoyl-2-oxopyrazin-1(2H)-yl)methoxy) ethyl acetate] | > 2000 |  |
| COc1cnc(O)c(C(N)=O)n1 [Compound 12, 3-hydroxy-6-methoxypyrazine-2-carboxamide] | > 1000 |  |
| NC(=O)c1ncn([C@@H]2O[C@H](CO)[C@@H](O)[C@H]2O)n1 [Ribavirin] | > 2000 | effect on ZIKV-induced CPE or cell death (ZIKV strain SZ01; Vero cells, ZIKV strain SZ01): little or no effect; anti-ZIKV activity (ZIKV strain SZ01; at concentrations below 400 μM): not active |
| NC(=O)c1nc([N+](=O)[O-])cnc1O [Compound 10, 6-nitropyrazine-3-hydroxy-2-carboxamide] | > 4000 |  |
| CCCCCCCCCCCCCCCCOCCCOP(=O)(O)CO[C@H](CO)Cn1ccc(N)nc1=O [CMX001, brincidofovir] |  | CC50 [1]: 11.3 ± 0.2 µM; anti-ZIKV activity (ZIKV strain SZ01): not active; effect on ZIKV-induced CPE or cell death (ZIKV strain SZ01): little or no effect |
| NC(=O)c1nccn(C2OC(CO)C(O)C2O)c1=O (stereo not shown) [Compound 6, 4-(3,4-dihydroxy-5-(hydroxymethyl)tetrahydrofuran-2-yl)-3-oxo-3,4-dihydropyrazine-2-carboxamide] | > 1000 | activity in cell culture (YFV [2]): only slight activity; efficacy in a hamster model of YFV infection (YFV [3]): effective |
| NC(=O)c1nc(OCCO)cnc1O [Compound 19, 3-hydroxy-6-(2-hydroxyethoxy) pyrazine-2-carboxamide] | > 1000 |  |
| CCOc1cnc(O)c(C(N)=O)n1 [Compound 13, 6-ethoxy-3-hydroxypyrazine-2-carboxamide] | > 500 |  |
| NC(=O)c1nc(F)cn(CC(O)COC(c2ccccc2)(c2ccccc2)c2ccccc2)c1=O (stereo not shown) [Compound 8, 6-fluoro-4-(2-hydroxy-3-(trityloxy)propyl)-3-oxo-3,4-dihydropyrazine-2-carboxamide] | > 500 |  |
| CCCCCOc1cnc(O)c(C(N)=O)n1 [Compound 17, 3-hydroxy-6-(pentyloxy)pyrazine-2-carboxamide] | 260 ± 51.1 |  |
| NC(=O)c1nc(Br)cnc1O [Compound 11, 6-bromo-3-hydroxypyrazine-2-carboxamide] | > 2000 |  |
| NC(=O)c1nccnc1O [Compound T-1105, 3-hydroxypyrazine-2-carboxamide] | > 4000 | cell death rate compared with mock-treated ZIKV-infected cells (ZIKV strain SZ01): significantly reduced; EC50 (ZIKV strain SZ01): 97.5 ± 6.8 µM |
| CC(=O)OCCOCn1cc(F)nc(C(N)=O)c1=O [Compound 7, 2-((3-carbamoyl-5-fluoro-2-oxopyrazin-1(2H)-yl)methoxy) ethyl acetate] | > 1000 |  |
| CCCCOc1cnc(O)c(C(N)=O)n1 [Compound 16, 6-butoxy-3-hydroxypyrazine-2-carboxamide] | 310 ± 15.2 |  |
